Experimental findings from publication PMC3460366, “Synthesis and Antibacterial Evaluation of a New Series of N-Alkyl-2-alkynyl/(E)-alkenyl-4-(1H)-quinolones” (Molecules, 2012) are described below.

For data set [1], the system named is human diploid embryonic lung cell line MRC-5. As to the kind of experiment: XTT cytotoxicity assay on MRC-5 cells. It counts as cell-based. To be noted: XTT. As for the experimental part: In order to assess the cytotoxicity of these novel quinolone derivatives, the effect on the viability of a human lung fibroblast cell line MRC-5, was measured using XTT proliferation assay. […] In addition, the position of the triple bond in the side chain seems to have a significant influence on cytotoxcity which is increased in compounds with a triple bond more distant to the quinolone nucleus. This can be concluded by comparing results of 8l, 8n, 8p, and 8r having similar antimycobacterial activity on M. smegmatis but different cytotoxcity depending on triple bond position.
The cytotoxic activity of the synthetic compounds was determined by means of an XTT Cell Proliferation Kit II (Roche Diagnostics, Mannheim, Germany) using the human diploid embryonic lung cell line MRC-5 [11]. The quinolone derivatives were tested at concentrations of 100, 60, 30 and 10 µM in triplicate and the percentage of viable cells at each concentration was determined by comparing with the control.
A general note: Formazan colour is commonly taken as a measure of viable cells.

Data set [2] deals with M. smegmatis (ATCC 14468). The experiment in a line: Microtiter broth dilution MIC against M. smegmatis (ATCC 14468). Particulars: Mycolicibacterium smegmatis, ATCC14468, 72 h, 37 °C, MTT. The class given is cell-based. On the technique in general: Broth dilution looks for growth in wells or tubes with falling amounts of substance.
A further data set concerns M. phlei (ATCC 11758). As to the kind of experiment: Broth dilution MIC against M. phlei. To be noted: Mycolicibacterium phlei, ATCC11758, 72 h. It counts as cell-based.
The subject of the next data set is M. smegmatis mc^2155. As to the kind of experiment: Broth dilution MIC against M. smegmatis mc^2155. To be noted: Mycolicibacterium smegmatis, 72 h. The class given is cell-based.
Data set [3] has as its system M. bovis BCG (ATCC 35734). The experiment in a line: microbe, parasite or virus in culture. It counts as cell-based. To be noted: Mycobacterium tuberculosis variant bovis BCG, 336 h, read-out: MIC M. bovis BCG.
The next data set deals with M. fortuitum (ATCC 6841). As to the kind of experiment: Broth dilution MIC against M. fortuitum. It counts as cell-based. Particulars: Mycolicibacterium fortuitum, ATCC6841, 72 h.
Data set [4] deals with T1, M. tuberculosis MurE ligase (Mycobacterium tuberculosis, UniProt P9WJL3).
T1 construct: made in house; host or cells: E. coli BL21(DE3)pLysS
T1 sequence (P9WJL3 whole entry): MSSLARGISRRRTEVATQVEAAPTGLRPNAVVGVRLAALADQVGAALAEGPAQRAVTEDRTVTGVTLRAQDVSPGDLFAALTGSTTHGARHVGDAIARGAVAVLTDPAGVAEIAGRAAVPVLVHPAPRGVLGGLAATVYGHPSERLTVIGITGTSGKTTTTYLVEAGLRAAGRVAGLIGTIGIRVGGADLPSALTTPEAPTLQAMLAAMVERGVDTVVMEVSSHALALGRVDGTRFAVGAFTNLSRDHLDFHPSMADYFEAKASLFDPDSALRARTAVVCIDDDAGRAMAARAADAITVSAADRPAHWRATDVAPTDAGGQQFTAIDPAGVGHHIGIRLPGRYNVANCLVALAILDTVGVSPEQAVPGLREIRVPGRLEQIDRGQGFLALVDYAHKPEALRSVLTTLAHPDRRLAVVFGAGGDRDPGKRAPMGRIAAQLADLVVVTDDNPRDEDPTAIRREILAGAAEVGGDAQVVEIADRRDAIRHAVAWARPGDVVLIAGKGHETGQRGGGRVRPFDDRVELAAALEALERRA
The experiment in a line: M. tuberculosis MurE inhibition assay (phosphate colorimetric detection). To be noted: tested at 1000, 300, 100 and 30 µM; IC50 from plot of percent inhibition vs. concentration; read-out: IC50 Mtb MurE. It counts as biochemical.

A further data set has as its system S. aureus EMRSA-15. The experiment in a line: Broth dilution MIC against EMRSA-15. The class given is cell-based. Particulars: Staphylococcus aureus, EMRSA15, 18 h.
For a further data set, the system named is S. aureus EMRSA-16. As to the kind of experiment: Broth dilution MIC against EMRSA-16. To be noted: Staphylococcus aureus, EMRSA16, 18 h. It counts as cell-based.

SMILES strings stand for the structures. “And” between values parts separate entries of the source, which are not always exact repeats. Equal values may be shown once.

Take `CCCCCCCCC#CCCc1cc(=O)c2ccccc2n1CC` [Compound 8k, 1-Ethyl-2-(3'-dodecynyl)-4(1H)-quinolone]: the melting point lay within 66 to 68 °C. In addition, in data set [1] (10 µM), the “Metabolic active MRC-5 cells (%)” value was 97.6 ± 1.69%. Besides, the “Metabolic active MRC-5 cells (%)” value in [1] (30 µM) was determined as 95.1 ± 1.04%. The “Metabolic active MRC-5 cells (%)” value in data set [1] (60 µM) was determined as 94.7 ± 0.92%. In addition, in data set [1] (100 µM), the “Metabolic active MRC-5 cells (%)” value is recorded as 74.8 ± 1.99%. Moreover, the MIC in [2] was 4 µg/mL and 11.9 µM.

For the molecule `NNC(=O)c1ccncc1` [Isoniazid, reference compound], the MIC with M. phlei (ATCC 11758) is 8 µg/mL and 58.3 µM; against M. smegmatis mc^2155 it was 4 µg/mL and 29.2 µM; in data set [3], 0.1 µg/mL and 0.7 µM; in data set [2] it was 4 µg/mL and 29.2 µM; against M. fortuitum (ATCC 6841), 2 µg/mL and 14.6 µM.

`CCCCCCCCCCCCC#CCCc1cc(=O)c2ccccc2n1C` [Compound 8s, 1-Methyl-2-(3′-hexadecynyl)-4(1H)-quinolone] showed a melting point of 58 to 61 °C. The “Metabolic active MRC-5 cells (%)” value in [1] (10 µM) is 93.9 ± 0.61%. Moreover, the “Metabolic active MRC-5 cells (%)” value in [1] (30 µM) is reported as 92.2 ± 0.70%. Moreover, in data set [1] (60 µM), the “Metabolic active MRC-5 cells (%)” value is 58.9 ± 3.65%. Besides, the “Metabolic active MRC-5 cells (%)” value in data set [1] (100 µM) was determined as 41.5 ± 9.49%. In data set [2], the MIC is 128 µg/mL and 338 µM.

As to `CCCCCCCCCCC#CCCc1cc(=O)c2ccccc2n1CCC` [Compound 8q, 1-(n-Propyl)-2-(3'-tetradecynyl)-4(1H)-quinolone], the MIC against M. phlei (ATCC 11758) was 2 µg/mL and 5.3 µM; against S. aureus EMRSA-15 it was 2 µg/mL and 5.3 µM; in the data set on M. smegmatis mc^2155, 1 µg/mL and 2.6 µM; in data set [3], 25 µg/mL and 66 µM; in [2] it was 1 µg/mL and 2.6 µM; in the data set with S. aureus EMRSA-16 it was 128 µg/mL and 338 µM. In addition, in the data set on M. fortuitum (ATCC 6841), the MIC was 2 µg/mL and 5.3 µM. In addition, the “Metabolic active MRC-5 cells (%)” value in [1] (10 µM) was determined as 92.7 ± 4.62%; in data set [1] (30 µM) it was 67.9 ± 2.65%; in data set [1] (60 µM) it was 19.8 ± 9.85%; in [1] (100 µM), 0.2 ± 0.09%. The IC50 in data set [4] is 200 µM.

As for `CCn1cc(C(=O)O)c(=O)c2cc(F)c(N3CCNCC3)cc21` [Norfloxacin, reference compound], the MIC against S. aureus EMRSA-15 was 0.5 µg/mL and 1.6 µM; in the data set on S. aureus EMRSA-16, 128 µg/mL and 401 µM.

On to `CCCCCCCCCCC#CCCc1cc(=O)c2ccccc2n1CC` [Compound 8p, 1-Ethyl-2-(3'-tetradecynyl)-4(1H)-quinolone], for which the melting point was in the range of 74 to 76 °C. The MIC against M. phlei (ATCC 11758) was 2 µg/mL and 5.5 µM. Besides, the “Metabolic active MRC-5 cells (%)” value in data set [1] (10 µM) amounted to 97.3 ± 1.37%. For the same molecule, the “Metabolic active MRC-5 cells (%)” value in data set [1] (30 µM) is on record as 95.4 ± 0.76%. Moreover, the “Metabolic active MRC-5 cells (%)” value in [1] (60 µM) is reported as 93.3 ± 1.13%. The “Metabolic active MRC-5 cells (%)” value in data set [1] (100 µM) was 8.75 ± 9.35%. In addition, the MIC against M. smegmatis mc^2155 was 1 µg/mL and 2.7 µM. In addition, the MIC in [2] is 1 µg/mL and 2.7 µM. Further, in the data set on M. fortuitum (ATCC 6841), the MIC was 4 µg/mL and 10.9 µM.

As to `CN(C)[C@@H]1C(O)=C(C(N)=O)C(=O)[C@@]2(O)C(O)=C3C(=O)c4c(O)cccc4[C@@](C)(O)[C@H]3C[C@@H]12` [Tetracycline, reference compound], the MIC in the data set with S. aureus EMRSA-15 was 0.25 µg/mL and 0.6 µM; with S. aureus EMRSA-16, 0.25 µg/mL and 0.6 µM.

In general, melting point refers to the temperature, or range, at which the solid turns liquid. As a reminder, the IC50 is the concentration that gives 50% inhibition.
